Here are results for 29 molecules from ChEMBL document CHEMBL4825689, “Halting colorectal cancer metastasis via novel dual nanomolar MMP-9/MAO-A quinoxaline-based inhibitors; design, synthesis, and evaluation” (Eur J Med Chem, 2021).

In test [1] the target is T1, Matrix metalloproteinase-9 (Homo sapiens, UniProt P14780). Nature of the test: Inhibition of MMP9 (unknown origin) at 1.3 uM by colorimetric assay relative to control.
For a further test, the system named is Epithelial cell. Nature of the test: Cytotoxicity against albino rat epithelial rat by MTT assay. The test is classed as cell-based.
In test [2] the test system is HCT-116. The experiment in a line: Anticancer activity against human HCT-116 cells overexpressing MMP9/MAO-A by MTT assay. It is filed as functional, cell-based.
The nature of test [3]: Selectivity index, ratio of IC50 for albino rat epithelial rat to IC50 for human HCT116 cells overexpressing MMP9/MAO-A.
Test [4] relates to HCT-116. The experiment in a line: Anticancer activity against human HCT116 cells overexpressing MMP9 assessed as shrinkage incubated for 72 hrs by morphology alteration assay. The test is classed as functional, cell-based.
Test [5] concerns HCT-116. The experiment in a line: Inhibition of cell migration in human HCT116 cells assessed as suppression of cell migration incubated for 20 hrs by wound healing assay relative to control. It is filed as functional.
Test [6] addresses T1, Matrix metalloproteinase-9. The experiment in a line: Inhibition of MMP9 (unknown origin) by colorimetric assay.
Test [7] concerns the target T2, Amine oxidase [flavin-containing] A (Homo sapiens, UniProt P21397).
T2 sequence (P21397 whole entry): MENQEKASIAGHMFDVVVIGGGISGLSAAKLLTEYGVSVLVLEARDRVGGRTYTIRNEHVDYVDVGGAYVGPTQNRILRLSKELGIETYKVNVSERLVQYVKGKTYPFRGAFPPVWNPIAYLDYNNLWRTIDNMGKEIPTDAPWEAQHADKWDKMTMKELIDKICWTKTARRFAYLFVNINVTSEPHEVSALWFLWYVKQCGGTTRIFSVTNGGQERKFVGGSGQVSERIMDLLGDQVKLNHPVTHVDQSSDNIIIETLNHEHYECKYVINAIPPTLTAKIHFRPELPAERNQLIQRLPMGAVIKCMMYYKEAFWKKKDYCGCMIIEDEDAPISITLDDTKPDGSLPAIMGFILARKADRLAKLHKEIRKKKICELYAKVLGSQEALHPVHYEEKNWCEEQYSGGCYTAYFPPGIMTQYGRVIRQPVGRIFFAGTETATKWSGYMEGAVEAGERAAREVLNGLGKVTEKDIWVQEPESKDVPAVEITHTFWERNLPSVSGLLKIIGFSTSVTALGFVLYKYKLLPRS
Nature of the test: Inhibition of MAO-A (unknown origin) by multi-well spectrophotometry.

The target in test [8] is T3, Amine oxidase [flavin-containing] B (Homo sapiens, UniProt P27338).
T3 sequence (P27338 whole entry): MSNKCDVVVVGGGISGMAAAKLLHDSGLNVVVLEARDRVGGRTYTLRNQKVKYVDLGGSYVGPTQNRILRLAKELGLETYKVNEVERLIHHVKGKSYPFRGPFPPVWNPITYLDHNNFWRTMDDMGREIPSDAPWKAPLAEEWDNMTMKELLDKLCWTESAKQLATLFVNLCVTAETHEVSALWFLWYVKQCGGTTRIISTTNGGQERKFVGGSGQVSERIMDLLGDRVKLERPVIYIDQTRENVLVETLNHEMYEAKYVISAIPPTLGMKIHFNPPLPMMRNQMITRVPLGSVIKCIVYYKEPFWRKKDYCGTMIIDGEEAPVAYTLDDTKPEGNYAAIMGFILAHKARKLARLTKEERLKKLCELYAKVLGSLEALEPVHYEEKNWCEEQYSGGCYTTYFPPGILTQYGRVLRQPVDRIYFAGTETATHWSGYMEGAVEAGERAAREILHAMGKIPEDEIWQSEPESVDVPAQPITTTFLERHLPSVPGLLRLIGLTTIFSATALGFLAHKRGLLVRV
Nature of the test: Inhibition of MAO-B (unknown origin) by fluorometric assay.

For a further test, the species on record is Homo sapiens. The experiment in a line: Selectivity for MAO-B (unknown origin) to MAO-A (unknown origin).
A short description of test [9]: Suppression of HIF1alpha expression in human HCT116 cells assessed as fold change by qRT-PCR analysis. The test is classed as functional, HCT-116.

Molecules are shown by their SMILES. Active and inactive are the calls of the source. The calls are words filed in the database; no cut-off is given here.

T1 sequence (P14780 whole entry): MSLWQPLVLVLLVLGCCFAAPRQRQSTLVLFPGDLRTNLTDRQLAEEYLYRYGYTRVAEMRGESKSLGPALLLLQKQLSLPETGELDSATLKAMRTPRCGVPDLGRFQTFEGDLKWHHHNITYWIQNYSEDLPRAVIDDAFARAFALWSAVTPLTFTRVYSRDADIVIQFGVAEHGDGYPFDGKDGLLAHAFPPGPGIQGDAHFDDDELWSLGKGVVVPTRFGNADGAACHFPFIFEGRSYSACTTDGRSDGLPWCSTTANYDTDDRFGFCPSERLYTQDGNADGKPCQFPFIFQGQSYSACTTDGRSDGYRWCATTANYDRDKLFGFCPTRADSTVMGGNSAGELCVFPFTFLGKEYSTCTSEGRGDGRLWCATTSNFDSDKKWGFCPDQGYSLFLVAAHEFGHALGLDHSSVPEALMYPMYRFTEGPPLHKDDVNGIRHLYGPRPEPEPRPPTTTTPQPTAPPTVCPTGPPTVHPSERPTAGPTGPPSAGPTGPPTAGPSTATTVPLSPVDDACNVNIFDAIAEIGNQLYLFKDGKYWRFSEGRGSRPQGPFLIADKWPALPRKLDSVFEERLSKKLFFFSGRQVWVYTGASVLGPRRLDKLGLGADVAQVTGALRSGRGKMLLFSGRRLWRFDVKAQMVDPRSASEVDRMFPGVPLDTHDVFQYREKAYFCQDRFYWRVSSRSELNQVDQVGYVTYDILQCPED

The molecule `O=C(CSc1nnc(-c2ccccc2)o1)NCc1ccc2c(c1)OCO2` registered an inhibition in test [1] of 30.5%.
Consider `Nn1c(S)nnc1Cn1c(=O)c(Cc2ccccc2)nc2ccccc21`, for which the IC50 with Epithelial cell was determined as 5.42 nM; in the test with HCT-116 [2], 36 nM. In addition, the “Selectivity Index” value in test [3] is 0.15.
Take `O=C(Cn1c(=O)c(Cc2ccccc2)nc2ccccc21)OCCNCCO`: the figures for the IC50 in the test on Epithelial cell and in the test with HCT-116 [2] were 5.03 nM and 16.5 nM, respectively.
In the case of `O=C1CC(=O)N(C(=O)Cn2c(=O)c(Cc3ccccc3)nc3ccccc32)N1`, the IC50 was determined as 8.95 nM with Epithelial cell and 16200 nM in the test with HCT-116 [2]. Besides, the “Selectivity Index” value in test [3] amounted to 0.553.
Turning to `CCOC(=O)NNC(=O)Cn1c(=O)c(Cc2ccccc2)nc2ccccc21`, the IC50 is 38.9 nM in the test on Epithelial cell; 7.4 nM in the test on HCT-116 [2]; 4.5 nM in test [6]; 11.9 nM in [7] (read-out: IC50); 11.2 nM in [8]. The “Selectivity Index” value amounted to 5.266 in test [3] and 2.07 in the test filed under Homo sapiens. Further, the result with HCT-116 [4] was Active. Further, the “inhibition (INH)” value in the test on HCT-116 [5] worked out at 28.82%. For the same molecule, in test [9], the “fold change (FC)” value is >5.
For the molecule `O=C(Cn1c(=O)c(Cc2ccccc2)nc2ccccc21)NN=c1c(=O)c2ccccc2c1=O`, the IC50 in the test on Epithelial cell worked out at 7.98 nM; in the test with HCT-116 [2], 18.6 nM. In addition, in test [3], the “Selectivity Index” value was found to be 0.435.
Turning to `O=c1c(Cc2ccccc2)nc2ccccc2n1Cc1nnc(S)n1-c1ccccc1`, the IC50 was found to be 7.78 nM in the test on Epithelial cell and 19.8 nM in the test with HCT-116 [2].
`CC(C)c1ccc(-n2nnc(-c3ccc(S(=O)(=O)NCC(=O)O)cc3)n2)cc1`: in test [6], the IC50 came out at 110 nM.
`COc1cccc2c1C(=O)c1c(O)c3c(c(O)c1C2=O)C[C@@](O)(C(=O)CO)C[C@@H]3O[C@H]1C[C@H](N)[C@H](O)[C@H](C)O1` [DOXORUBICIN]: the IC50 with Epithelial cell came to 9.79 nM; in the test on HCT-116 [2], 761 nM. Also, the “Selectivity Index” value in test [3] was 0.013.
As for `c1ccc(Cc2nc3ccccc3n3cnnc23)cc1`, in [7] (read-out: IC50), the IC50 was determined as 0.7 nM.
In test [6], `CNC(=O)C(Cc1ccccc1)NC(=O)C(CC(C)C)SC1CCCC1S` (configuration not stated) showed an IC50 of 0.57 nM.
With `O=C(Cn1c(=O)c(Cc2ccccc2)nc2ccccc21)N/N=C/c1ccccc1O`, the IC50 in the test with Epithelial cell stood at 8.12 nM; in the test on HCT-116 [2], 16300 nM. Besides, in test [3], the “Selectivity Index” value came to 0.508.
For `NNC(=O)Cn1c(=O)c(Cc2ccccc2)nc2ccccc21`, in that order: 10.6 nM, 14.7 nM and 0.729.
With `O=c1c(Cc2ccccc2)nc2ccccc2n1Cc1nnco1`, the IC50 in the test with Epithelial cell is 9.84 nM; in the test on HCT-116 [2] it was 45.9 nM.
Take `O=c1c(Cc2ccccc2)nc2ccccc2n1CC(O)CO` (configuration not stated): the IC50 is 48.7 nM with Epithelial cell; 8.81 nM in the test on HCT-116 [2]; 9.3 nM in [6]; 24 nM in test [7] (read-out: IC50); 11 nM in test [8]. Further, the entries for the “Selectivity Index” value (in [3]; in the test filed under Homo sapiens) were 5.52 and 0.921, respectively. In addition, the result with HCT-116 [4] was Active. For the same molecule, the “inhibition (INH)” value in the test with HCT-116 [5] is on record as 27.48%. Also, in [9], the “fold change (FC)” value was >5.
Turning to `NC(=S)NNC(=O)Cn1c(=O)c(Cc2ccccc2)nc2ccccc21`, the IC50 with Epithelial cell was 53.7 nM; in the test on HCT-116 [2] it was 5.57 nM; in [6] it was 5.07 nM; in [7] (read-out: IC50), 10.5 nM; in test [8], 7.09 nM. The results for the “Selectivity Index” value (in [3]; in the test listed under Homo sapiens) were 9.648 and 1.33, respectively. In the test on HCT-116 [5], the “inhibition (INH)” value turned out to be 61.29%. The “fold change (FC)” value in test [9] was >11.02.
`C#CCN(C)CCCOc1ccc(Cl)cc1Cl` [CLORGILINE]: the IC50 entry in [7] was “Not Active”.
With `C(=N\NC1Nc2ccccc2N=C1Cc1ccccc1)/c1ccccc1` (configuration not stated), the IC50 in test [7] (read-out: IC50) was 81 nM.
Consider `O=c1c(O)c(-c2ccc(O)c(O)c2)oc2cc(O)cc(O)c12` [QUERCETIN], for which the IC50 in test [6] was 174 nM.
In the case of `O=c1c(Cc2ccccc2)nc2ccccc2n1Cc1nnc(S)o1`, the IC50 with Epithelial cell was found to be 5.29 nM; with HCT-116 [2], 10.7 nM. The “Selectivity Index” value in test [3] was 0.512.
Turning to `CC(C)(C)OC(=O)C(Cc1ccccc1)NC(=O)Cn1c(=O)c(Cc2ccccc2)nc2ccccc21` (configuration not stated), the IC50 in the test on Epithelial cell was 26.1 nM; in the test on HCT-116 [2], 22.3 nM; in [7] (read-out: IC50), 15.2 nM. Further, the “Selectivity Index” value in [3] worked out at 1.172.
As for `Cc1ccc(C(=O)NNC(=O)Cn2c(=O)c(Cc3ccccc3)nc3ccccc32)cc1`, the IC50 with Epithelial cell stood at 49.7 nM; in the test on HCT-116 [2], 7.64 nM; in test [6] it was 23.1 nM; in test [7] (read-out: IC50) it was 5.33 nM; in test [8] it was 28.6 nM. In addition, the “Selectivity Index” value in test [3] was found to be 6.51; in the test filed under Homo sapiens it was 1.88. Also, the outcome in the test with HCT-116 [4] was Active. Also, the “inhibition (INH)” value in the test on HCT-116 [5] came to 73.32%. Besides, the “fold change (FC)” value in test [9] was >15.94.
On to `CCOC(=O)Cn1c(=O)c(Cc2ccccc2)nc2ccccc21`, for which the IC50 in the test with Epithelial cell worked out at 10.2 nM; in the test with HCT-116 [2] it was 18.3 nM. The “Selectivity Index” value in [3] worked out at 0.559.
Consider `O=c1c(Cc2ccccc2)nc2ccccc2n1CC(O)CCl` (configuration not stated), for which the values for the half-maximal inhibitory concentration (IC50) in the test on Epithelial cell and with HCT-116 [2] were 16.3 nM and 18.7 nM, respectively. Also, the “Selectivity Index” value in test [3] was 0.954.
On to `O=C(Cn1c(=O)c(Cc2ccccc2)nc2ccccc21)NNC(=S)Nc1ccccc1`, for which the IC50 worked out at 16.1 nM with Epithelial cell; 5.84 nM in the test on HCT-116 [2]; 8.41 nM in test [6]; 5.41 nM in test [7] (read-out: IC50); 6.81 nM in test [8]. For the same molecule, the entries for the “Selectivity Index” value (in [3]; in the test filed under Homo sapiens) were 2.751 and 0.649, respectively. Besides, the “inhibition (INH)” value in the test on HCT-116 [5] came out at 21.27%. Besides, the “fold change (FC)” value in [9] was >5.
As for `O=C(O)Cn1c(=O)c(Cc2ccccc2)nc2ccccc21`, the IC50 in the test with Epithelial cell was determined as 13300 nM; with HCT-116 [2] it was 15.8 nM. In addition, the “Selectivity Index” value in [3] is recorded as 0.844.
Turning to `N=C(N)NS(=O)(=O)c1ccc(NC(=O)Cn2c(=O)c(Cc3ccccc3)nc3ccccc32)cc1`, the IC50 in the test with Epithelial cell is 8.97 nM; in the test with HCT-116 [2], 12.9 nM. In addition, the “Selectivity Index” value in test [3] is 0.695.
In the case of `Nn1c(Cn2c(=O)c(Cc3ccccc3)nc3ccccc32)nnc1Cn1c(=O)c(Cc2ccccc2)nc2ccccc21`, the half-maximal inhibitory concentration (IC50) worked out at 6.04 nM with Epithelial cell and 14.9 nM in the test with HCT-116 [2]. In test [3], the “Selectivity Index” value is on record as 0.405.
`COc1cc(/C=N/NC(N)=S)ccc1O`: the IC50 in test [6] is 106 nM.
